Assay results as given in patent US20250163104A1, “MACROCYCLIC IMMUNOMODULATORS” (priority 2021, published 2025).
*1 amine or outer side, *2 acyl side, *3 side chain or, on linkers, in order; H or OH if unused. Where a SMILES comes first, the peptide text is derived from it. Bridges are numbered along the chain shown (N, C = ends). [ ]: non-standard residue; d: D form. The star is where a group is joined. ξ: configuration not given here. X10 = CCc1ccccc1-c1ccc(C[C@H](N[*:1])C(=O)[*:2])cc1; Phe(3-CF3) = N[C@@H](Cc1cccc(C(F)(F)F)c1)C(=O)O; Ala(morpholin-4-yl) = N[C@@H](CN1CCOCC1)C(=O)O; Phe(4-CONH2) = NC(=O)c1ccc(C[C@H](N)C(=O)O)cc1; Phe(4-COOH) = N[C@@H](Cc1ccc(C(=O)O)cc1)C(=O)O; Phe(4-CH2NH2) = NCc1ccc(C[C@H](N)C(=O)O)cc1; X5 = O=C([C@H](Cc1ccc2ncccc2c1)N[*:1])[*:2]; Bip = N[C@@H](Cc1ccc(-c2ccccc2)cc1)C(=O)O; Phe(3-Me) = Cc1cccc(C[C@H](N)C(=O)O)c1; Phe(4-Me) = Cc1ccc(C[C@H](N)C(=O)O)cc1; Ethylenediamine = C(CN[*:2])N[*:1]; Val(3-OH) = CC(C)(O)[C@H](N)C(=O)O; 4Pal = N[C@@H](Cc1ccncc1)C(=O)O; Cha = N[C@@H](CC1CCCCC1)C(=O)O; Cit = NC(=O)NCCC[C@H](N)C(=O)O; dCha = N[C@H](CC1CCCCC1)C(=O)O; Thr(3ξ) = CC(O)[C@H](N)C(=O)O; Carboxymethyl = O=C(O)C*; Nle = CCCC[C@H](N)C(=O)O; Orn = NCCC[C@H](N)C(=O)O; Pra = C#CC[C@H](N)C(=O)O; Dab = NCC[C@H](N)C(=O)O; Nva = CCC[C@H](N)C(=O)O; Dap = NC[C@H](N)C(=O)O

Target: T1, human PD-1 / PD-L1-Ig binding on Jurkat cell line over-expressing human PD-1 (Jurkat-PD-1) (Homo sapiens, UniProt Q15116)
T1 construct: expressed in transfected cells; host or cells: Jurkat
T1 sequence (Q15116 25-288): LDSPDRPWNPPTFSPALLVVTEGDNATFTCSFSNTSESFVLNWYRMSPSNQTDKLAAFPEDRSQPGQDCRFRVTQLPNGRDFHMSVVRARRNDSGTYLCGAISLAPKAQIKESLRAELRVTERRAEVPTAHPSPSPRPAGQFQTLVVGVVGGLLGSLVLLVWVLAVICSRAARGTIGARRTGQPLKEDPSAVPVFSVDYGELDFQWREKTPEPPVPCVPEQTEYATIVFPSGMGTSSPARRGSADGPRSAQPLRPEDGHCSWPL
Assay: Jurkat-PD-1 Cell Binding High-Content Screening Assay (CBA)
Type: cell-based
Conditions: Jurkat-PD-1 cells, PE-labeled PD-L1-Ig 20 nM final; read-out: Jurkat HPD1_PDL1 IC50
Method in brief: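 Read-out: high-content imaging of PE-tagged PD-L1-Ig bound to Jurkat cells overexpressing human PD-1, after fixation with 4% paraformaldehyde and Hoechst 33342 nuclear staining. Ligand was used at 20 nM final for 1 hour, after a 2 h compound exposure at 37° C in serum-containing DMEM.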

SMILES	IC50 [nM]
Cc1ccc(C[C@@H]2NC(=O)[C@H](C(C)O)NC(=O)CSC[C@@H](C(=O)N[C@@H](CCN)C(N)=O)NC(=O)[C@H](Cc3c[nH]cn3)NC(=O)[C@H](C(C)(C)O)NC(=O)[C@H](CC3CCCCC3)NC(=O)[C@H](CCN)NC(=O)[C@@H](CC(C)C)NC(=O)[C@H](CCCN)NC(=O)[C@H](Cc3ccc(OCC(=O)O)cc3)NC(=O)[C@H](Cc3ccc(-c4ccccc4)cc3)NC(=O)[C@H](Cc3ccc(OCC(=O)O)cc3)NC(=O)[C@H](Cc3cccc(C)c3)NC(=O)[C@H](CC(=O)O)NC2=O)cc1 (stereo partly drawn) [Compound 2671] ({CH2CO}-[Thr(3ξ)][Phe(4-Me)]D[Phe(3-Me)]Y(Carboxymethyl)[Bip]Y(Carboxymethyl)[Orn][dL][Dab][Cha][Val(3-OH)]HC[Dab]-NH2; thioether N-14)	9.2
CC(C)[C@@H]1NC(=O)[C@H](Cc2c[nH]c3ccccc23)NC(=O)[C@H](CC(=O)O)NC(=O)[C@H](Cc2ccc(OCC(=O)O)cc2)NC(=O)[C@H](CN)NC(=O)CSC[C@@H](C(=O)N[C@@H](C)C(N)=O)NC(=O)[C@H]([C@@H](C)O)NC(=O)[C@H](C(C)C)NC(=O)[C@H](CC2CCCCC2)NC(=O)[C@H](CCN)NC(=O)[C@@H](CC2CCCCC2)NC(=O)[C@H](CCCN)NC(=O)[C@H](C(C)C)NC(=O)[C@H](Cc2ccc(-c3ccccc3)cc2)NC1=O [Compound 1635] ({CH2CO}-[Dap]Y(Carboxymethyl)DWV[Bip]V[Orn][dCha][Dab][Cha]VTCA-NH2; thioether N-14)	18.1
CC(C)[C@@H]1NC(=O)[C@H](Cc2c[nH]c3ccccc23)NC(=O)[C@H](CC(=O)O)NC(=O)[C@H](Cc2ccc(C(=O)O)cc2)NC(=O)[C@H](Cc2ccc(OCC(=O)O)cc2)NC(=O)CSC[C@@H](C(=O)N[C@@H](C)C(N)=O)NC(=O)[C@H]([C@@H](C)O)NC(=O)[C@H](C(C)C)NC(=O)[C@H](CC2CCCCC2)NC(=O)[C@H](CCN)NC(=O)[C@@H](Cc2ccccc2)NC(=O)[C@H](CCCN)NC(=O)[C@H](CCC(=O)O)NC(=O)[C@H](Cc2ccc(-c3ccccc3)cc2)NC1=O [Compound 1438] ({CH2CO}-Y(Carboxymethyl)[Phe(4-COOH)]DWV[Bip]E[Orn][dF][Dab][Cha]VTCA-NH2; thioether N-14)	30.4
CC(C)C[C@@H]1NC(=O)[C@H](Cc2c[nH]c3ccccc23)NC(=O)[C@H](CC(=O)O)NC(=O)[C@H](Cc2ccc(O)cc2)NC(=O)[C@H](Cc2ccccc2)NC(=O)CSC[C@@H](C(=O)N[C@@H](C)C(N)=O)NC(=O)[C@H]([C@@H](C)O)NC(=O)[C@H](C(C)C)NC(=O)[C@H](CC(C)C)NC(=O)[C@H](CC(N)=O)NC(=O)[C@@H](C)NC(=O)[C@H](CN)NC(=O)[C@H](C(C)C)NC(=O)[C@H](Cc2ccc(-c3ccccc3)cc2)NC1=O [Compound 1076] ({CH2CO}-FYDWL[Bip]V[Dap][dA]NLVTCA-NH2; thioether N-14)	68.7
C#CC[C@H](NC(=O)[C@H](C)NC(=O)[C@@H]1CSCC(=O)N[C@@H](CN)C(=O)N[C@@H](Cc2ccc(OCC(=O)O)cc2)C(=O)N[C@@H](CC(=O)O)C(=O)N[C@@H](Cc2cccc(C)c2)C(=O)N[C@@H](C(C)C)C(=O)N[C@@H](Cc2ccc(-c3ccccc3)cc2)C(=O)N[C@@H](CCCNC(N)=O)C(=O)N[C@@H](CCCN)C(=O)N[C@H](CC(C)C)C(=O)N[C@@H](CCN)C(=O)N[C@@H](CC2CCCCC2)C(=O)N[C@@H](C(C)C)C(=O)N[C@@H]([C@@H](C)O)C(=O)N1)C(=O)O [Compound 2259]	44.3
CC(C)C[C@H]1NC(=O)[C@H](CCCN)NC(=O)[C@H](Cc2ccc(C(=O)O)cc2)NC(=O)[C@H](Cc2ccc(-c3ccccc3)cc2)NC(=O)[C@H](Cc2ccc(CN)cc2)NC(=O)[C@H](Cc2cccc(C(F)(F)F)c2)NC(=O)[C@H](CC(=O)O)NC(=O)[C@H](Cc2ccc(C(=O)O)cc2)NC(=O)[C@H](CN2CCOCC2)NC(=O)CSC[C@@H](C(=O)N[C@@H](CCN)C(N)=O)NC(=O)[C@H](CCC(=O)O)NC(=O)[C@H](C(C)C)NC(=O)[C@H](CC2CCCCC2)NC(=O)[C@H](CCN)NC1=O [Example 2747] ({CH2CO}-[Ala(morpholin-4-yl)][Phe(4-COOH)]D[Phe(3-CF3)][Phe(4-CH2NH2)][Bip][Phe(4-COOH)][Orn][dL][Dab][Cha]VEC[Dab]-NH2; thioether N-14)	2.8
CC(C)C[C@H]1NC(=O)[C@H](CCCN)NC(=O)[C@H](CCC(=O)O)NC(=O)[C@H](Cc2ccc(-c3ccccc3)cc2)NC(=O)[C@H](C(C)C)NC(=O)[C@H](Cc2c[nH]c3ccccc23)NC(=O)[C@H](CC(=O)O)NC(=O)[C@H](Cc2ccc3ncccc3c2)NC(=O)[C@H](CC(N)=O)NC(=O)CSC[C@@H](C(=O)N[C@@H](C)C(N)=O)NC(=O)[C@H]([C@@H](C)O)NC(=O)[C@H](C(C)C)NC(=O)[C@H](CC2CCCCC2)NC(=O)[C@H](CCN)NC1=O [Compound 2175] ({CH2CO}-N[X5]DWV[Bip]E[Orn][dL][Dab][Cha]VTCA-NH2; thioether N-14)	69.4
CC(C)C[C@H]1NC(=O)[C@H](CCCN)NC(=O)[C@H](CCCCN)NC(=O)[C@H](Cc2ccc(-c3ccccc3)cc2)NC(=O)[C@H](C(C)C)NC(=O)[C@H](Cc2c[nH]c3ccccc23)NC(=O)[C@H](CC(=O)O)NC(=O)[C@H](Cc2ccncc2)NC(=O)[C@H](CN)NC(=O)CSC[C@@H](C(=O)N[C@@H](C)C(N)=O)NC(=O)[C@H]([C@@H](C)O)NC(=O)[C@H](C(C)C)NC(=O)[C@H](CC2CCCCC2)NC(=O)[C@H](CCN)NC1=O [Compound 1389] ({CH2CO}-[Dap][4Pal]DWV[Bip]K[Orn][dL][Dab][Cha]VTCA-NH2; thioether N-14)	8.5
Cc1cccc(C[C@@H]2NC(=O)[C@H](CC(=O)O)NC(=O)[C@H](Cc3ccc(OCC(=O)O)cc3)NC(=O)[C@H](C(C)O)NC(=O)CSC[C@@H](C(=O)N[C@@H](CO)C(=O)NCCN)NC(=O)[C@H](C(C)O)NC(=O)[C@H](C(C)(C)O)NC(=O)[C@H](CC3CCCCC3)NC(=O)[C@H](CCN)NC(=O)[C@@H](CC(C)C)NC(=O)[C@H](CCCN)NC(=O)[C@H](Cc3ccc(O)cc3)NC(=O)[C@H](Cc3ccc(-c4ccccc4)cc3)NC(=O)[C@H](Cc3ccc(C(N)=O)cc3)NC2=O)c1 (stereo partly drawn) [Compound 2663] ({CH2CO}-[Thr(3ξ)]Y(Carboxymethyl)D[Phe(3-Me)][Phe(4-CONH2)][Bip]Y[Orn][dL][Dab][Cha][Val(3-OH)][Thr(3ξ)]CS-Ethylenediamine; thioether N-14)	11.6
CC(C)[C@@H]1NC(=O)[C@H](Cc2c[nH]c3ccccc23)NC(=O)[C@H](CC(=O)O)NC(=O)[C@H](Cc2ccc(C(=O)O)cc2)NC(=O)[C@H](Cc2ccncc2)NC(=O)CSC[C@@H](C(=O)N[C@@H](C)C(N)=O)NC(=O)[C@H]([C@@H](C)O)NC(=O)[C@H](C(C)C)NC(=O)[C@H](CC2CCCCC2)NC(=O)[C@H](CCN)NC(=O)[C@@H](CC2CCCCC2)NC(=O)[C@H](CCCN)NC(=O)[C@H](CCCNC(N)=O)NC(=O)[C@H](Cc2ccc(-c3ccccc3)cc2)NC1=O [Compound 1640] ({CH2CO}-[4Pal][Phe(4-COOH)]DWV[Bip][Cit][Orn][dCha][Dab][Cha]VTCA-NH2; thioether N-14)	25.7
C#CC[C@H](NC(=O)[C@@H]1CSCC(=O)N[C@@H](CCC)C(=O)N[C@@H](Cc2ccc(OCC(=O)O)cc2)C(=O)N[C@@H](CC(=O)O)C(=O)N[C@@H](Cc2cccc(C)c2)C(=O)N[C@@H](Cc2ccc(OCC(=O)O)cc2)C(=O)N[C@@H](Cc2ccc(-c3ccccc3)cc2)C(=O)N[C@@H](Cc2ccc(OCC(=O)O)cc2)C(=O)N[C@@H](CCCC)C(=O)N[C@H](CC(C)C)C(=O)N[C@@H](CCN)C(=O)N[C@@H](CC2CCCCC2)C(=O)N[C@@H](C(C)C)C(=O)N[C@@H](CCC(=O)O)C(=O)N1)C(=O)O [Compound 2703] ({CH2CO}-[Nva]Y(Carboxymethyl)D[Phe(3-Me)]Y(Carboxymethyl)[Bip]Y(Carboxymethyl)[Nle][dL][Dab][Cha]VEC[Pra]-OH; thioether N-14)	412
CCC(C)[C@@H]1NC(=O)[C@H](Cc2ccc(-c3ccccc3)cc2)NC(=O)[C@H](C(C)C)NC(=O)[C@H](Cc2c[nH]c3ccccc23)NC(=O)[C@H](CC(=O)O)NC(=O)[C@H](Cc2ccc(OCC(=O)O)cc2)NC(=O)[C@H](Cc2ccncc2)NC(=O)CSC[C@@H](C(=O)N[C@@H](C)C(N)=O)NC(=O)[C@H](C(C)O)NC(=O)[C@H](C(C)C)NC(=O)[C@H](CC2CCCCC2)NC(=O)[C@H](CCN)NC(=O)[C@@H](CC(C)C)NC(=O)[C@H](CCCN)NC1=O (some centres unmarked) [Compound 2519]	6.5
CC[C@H](C)[C@@H]1NC(=O)[C@H](Cc2ccc(-c3ccccc3)cc2)NC(=O)[C@H](C(C)C)NC(=O)[C@H](Cc2c[nH]c3ccccc23)NC(=O)[C@H](CC(=O)O)NC(=O)[C@H](Cc2ccc(O)cc2)NC(=O)[C@H](Cc2ccc(OCC(=O)O)cc2)NC(=O)CSC[C@@H](C(=O)N[C@@H](C)C(N)=O)NC(=O)[C@H]([C@@H](C)O)NC(=O)[C@H](C(C)C)NC(=O)[C@H](CC2CCCCC2)NC(=O)[C@H](CCN)NC(=O)[C@@H](CC(C)C)NC(=O)[C@H](CCCN)NC1=O [Compound 1167]	17
CCc1ccccc1-c1ccc(C[C@@H]2NC(=O)[C@H](Cc3cccc(C(F)(F)F)c3)NC(=O)[C@H](CC(=O)O)NC(=O)[C@H](Cc3ccc(C(=O)O)cc3)NC(=O)[C@H](CN3CCOCC3)NC(=O)CSC[C@@H](C(=O)N[C@@H](CCN)C(N)=O)NC(=O)[C@H](CCC(=O)O)NC(=O)[C@H](C(C)C)NC(=O)[C@H](CC3CCCCC3)NC(=O)[C@H](CCN)NC(=O)[C@@H](CC(C)C)NC(=O)[C@H](CCCN)NC(=O)[C@H](Cc3ccc(C(=O)O)cc3)NC(=O)[C@H](Cc3ccc(-c4ccccc4)cc3)NC2=O)cc1 [Example 2734] ({CH2CO}-[Ala(morpholin-4-yl)][Phe(4-COOH)]D[Phe(3-CF3)][X10][Bip][Phe(4-COOH)][Orn][dL][Dab][Cha]VEC[Dab]-NH2; thioether N-14)	5.7
